The results in this text go back to patent US20130072459A1, “PHARMACEUTICAL COMPOSITION FOR THE PREVENTION OR THE TREATMENT OF NON-ALCOHOLIC FATTY LIVER DISEASE AND THE METHOD FOR PREVENTION OR TREATMENT OF NON-ALCOHOLIC FATTY LIVER DISEASE USING THE SAME” (priority 2010, published 2013).

One data set concerns HepG2 cells. Briefly: Free fatty acid-induced intracellular fat accumulation, Nile Red staining. The class given is cell-based, human. Conditions: for free fatty acid-induced fat accumulation in hepatocytes, result in words: FIG. 10; for inhibition at 1 µM: Homo sapiens, HepG2, 0.5 mM free fatty acid, 24 hours, read-out: inhibitory effects on free fatty acid-induced fat accumulation. As to the method: By a combined treatment of free fatty acid and a drug, inhibitory effects of individual drugs on intracellular fat accumulation were quantified using a triglyceride staining method. The human hepatoma cell line, HepG2 cells were cultured in a minimum essential medium (MEM) containing 10(v/v) % fetal bovine serum for 48 hours. […] For the negative control group, a MEM containing 1(v/v) % bovine serum albumin was treated with 0.1(v/v) % dimethyl sulfoxide with no addition of free fatty acid. After the culture was complete, the medium was removed and the cells were washed with a phosphate buffer. […] After the staining was complete, the supernatant was discarded and replaced with a phosphate buffer, followed by measurement of fluorescence intensities under conditions of a 488 nm excitation wavelength and a 550 nm emission wavelength. Then, in order to correct a deviation according to the cell count, a phosphate buffer containing 10 μM resazurin (Sigma) dissolved therein was added to the same well. Thereafter, before and after the reaction at 37° C. for 1 hour under light-shielded conditions, fluorescence intensities were measured using a fluorometer under conditions of a 535 nm excitation wavelength and a 580 nm emission wavelength, whereby an increase in fluorescence intensity due to resorufin reduced and formed by the intracellular mitochondrial activity was measured. Using the value of a fluorescence intensity of Nile Red corrected in terms of an increase in fluorescence intensity due to the reduction of resazurin, the experimental results were expressed as a percentage for the fat accumulation increased by a treatment with free fatty acid, as compared to the negative control group.

Data set [1] deals with high fat diet-induced simple steatosis. Briefly: Preventive effects on high fat diet-induced simple steatosis in mice (drug-mixed diet, 8/16/24 weeks). The class given is in vivo, C57BL/6 mice. To be noted: for serum alanine aminotransferase (ALT), result in words: at 16 weeks and 24 weeks; for serum alanine aminotransferase (ALT), result in words / hepatic triglyceride content, result in words: vs high fat diet-fed group; for hepatic triglyceride content, result in words: hepatic triglyceride analysis and histological analysis. As to the method: 6-week old male C57BL/6 mice were stabilized and then divided into 5 groups. One group was given a standard diet containing 10% fat (trade name: D12450B, manufactured by Research Diets), and one group was given a high fat diet containing 60% fat (trade name: D12492, manufactured by Research Diets). Remaining 3 groups as drug-treated groups were given a drug-mixed diet specially formulated by mixing a high fat diet and a drug. With regard to tartrate of Compound 1, in order to supply 100 mg/kg and 300 mg/kg which are daily target doses of tartrate of Compound 1 based on the daily average high fat diet consumption amount, diets were formulated by mixing a high fat diet and 0.2% by weight and 0.5% by weight of tartrate of Compound 1, respectively. With regard to sitagliptin phosphate, in order to supply 300 mg/kg which is a daily target dose based on the daily average high fat diet consumption amount, a diet was formulated by mixing a high fat diet and about 0.5% by weight of sitagliptin phosphate. Individual drug-treated groups were given the drug-mixed diets thus formulated. 8 weeks, 16 weeks, and 24 weeks after a supply of each diet, animals were dissected and sera were separated. Then, serum ALT levels (alanine aminotransferase, GPT, glutamic pyruvate transaminase) were measured using a blood analyzer (Table 1 and FIG. 1). The excised liver was homogenized in a 5(v/v) % Triton-X solution, and a triglyceride working reagent [which was prepared by mixing a free glycerol reagent (F6428, Sigma) and a triglyceride reagent (T2449, Sigma) in a ratio of 4:1(v/v)] was added thereto, followed by measurement of an absorbance at 540 nm to determine the content of triglyceride (Table 1 and FIG. 2). In addition, in order to observe histological fat distribution, a portion of the excised liver was fixed in a 10(v/v) % formalin solution and then a tissue sample was prepared, followed by hematoxylin & eosin staining and photographing using an image analysis program (computerized image analysis) (FIG. 3, the violet-stained portion represents a normal liver tissue, and white-stained portion represents lipid droplets).

The test system of the next data set is TGF-β1. The experiment in a line: TGF-β1 mRNA expression in liver, CCl4-induced acute hepatic damage mouse model. To be noted: for TGF-β1 expression inhibition rate (% CCl4 control group) / TGF-β1 expression (normalized by actin): 3 days; for TGF-β1 expression (normalized by actin): CCl4 0.1 ml/kg i.p.; for maximum decrement in TGF-β1 mRNA expression of the liver relative to the CCl4 control group: maximum over the doses tested; for expression of TGF-β1 mRNA of the liver, result in words: vs CCl4 group. The class given is in vivo, C57BL/6 mice. The method, then: In order to investigate inhibitory effects of compounds of the present invention on expression of TGF-β1 which is known to play a crucial role in a fibrosis process of hepatocytes in a CCl4-induced acute hepatic damage mouse model, the following experiment was carried out. 7-week old male C57BL/6 mice were stabilized and divided into 9 groups (n=7) according to the body weight, followed by intraperitoneal administration of CCl4 (0.1 ml/kg). The normal control group was administered an olive oil. The control group was orally administered a vehicle solution (0.5% MC) once a day at a dose of 10 ml/kg, at intervals of 24 hours for 3 days. The remaining groups were orally administered once a day tartrate of Compound 1 at doses of 30, 100 and 300 mg/kg, sitagliptin phosphate (prepared according to the method described in WO2004/085378 or WO2005/003135) at doses of 100 and 300 mg/kg, and vildagliptin (Trademax, China) at doses of 100 and 300 mg/kg, respectively, according to the designated groups. 1 hour after the final oral administration, animals were dissected and the excised liver was subjected to evaluation of TGF-β1 mRNA expression. The liver tissue stored in liquid nitrogen was homogenized in a TRIZOL solution and then the total RNAs were extracted. The isolated RNAs were diluted to a concentration of 1 μg/μL in 0.1(v/v) % DEPC (diethyl pyrocarbonate), and then the RNA mixture [2 μg/μL each RNA+2 μL of 0.5 μg/μL oligo d(T)15+up to 15 μL of 0.1% DEPC water] was incubated using a PCR apparatus at 72° C. for 5 minutes, followed by quenching on ice. The mixture [1 μL of PCR nucleotide mix+5 μL of 5×MMLV RT bf.(Promega, M531A)+1 μL of […] M-MLV reverse] was prepared, and then subjected to elongation at 42° C. for 60 minutes, denaturation at 95° C. for 5 minutes and quenching at 8° C. to synthesize cDNAs which were stored at −20° C. until subsequent use. In order to carry out RT-PCR, the mixture [1 μL of 20 pmol each Primer+9.5 μL of Nuclease-free water] was prepared and then 2 μL of each cDNA was placed in sterile PCR tubes to which 12.5 μL of remix Taq™ (RR003A, TaKaRa) was then added, followed by mixing. PCR was carried out under the following conditions (Table 4), using Thermal Cycler (PTC-200, MJ Research). PCT products were electrophoresed and analyzed using an Image Analyzer (Vilber Lourmat). Using β-actin expression, the expression of a target gene TGF-β1 was subjected to normalization (FIG. 11).

The mark [2] stands for this setting: 8 weeks, high fat diet + 0.5% drug (target 300 mg/kg/day).
The mark [3] stands for this setting: 16 weeks, high fat diet + 0.5% drug (target 300 mg/kg/day).
Setting [4] is: 24 weeks, high fat diet + 0.5% drug (target 300 mg/kg/day).
Setting [5] is: 8 weeks, high fat diet + 0.2% drug (target 100 mg/kg/day).
Where [6] appears, read: 16 weeks, high fat diet + 0.2% drug (target 100 mg/kg/day).
Where [7] appears, read: 24 weeks, high fat diet + 0.2% drug (target 100 mg/kg/day).

Each structure is given as a SMILES string.

`N[C@@H](CC(=O)N1CCn2c(nnc2C(F)(F)F)C1)Cc1cc(F)c(F)cc1F` [sitagliptin phosphate, sitagliptin]: in the data set with HepG2 cells, the “free fatty acid-induced fat accumulation in hepatocytes, result in words” value is recorded as “dose-dependent inhibition” and the inhibition at 1 µM amounted to 28.7 ± 3.2%. In addition, in data set [1] (setting [2]), the “Hepatic TG” value turned out to be 11.8 ± 2.7 mg/g wet liver and the “Plasma ALT” value is 26.5 ± 1.8 U/L. Also, in data set [1] (setting [3]), the “Hepatic TG” value came out at 10.0 ± 1.2 mg/g wet liver and the “Plasma ALT” value is on record as 22.2 ± 1.3 U/L. Moreover, in data set [1] (setting [4]), the “Hepatic TG” value is 36.8 ± 6.6 mg/g wet liver and the “Plasma ALT” value is given as 27.0 ± 1.7 U/L. In addition, in data set [1], the “serum alanine aminotransferase (ALT), result in words” value is given as “significant decreases” and the “hepatic triglyceride content, result in words” value was “significant decrease”. Also, in the data set on TGF-β1 (100 mg/kg oral once a day), the “TGF-β1 expression inhibition rate (% CCl4 control group)” value was found to be 41% and the “TGF-β1 expression (normalized by actin)” value was 1.13 ± 0.19. Moreover, in the data set on TGF-β1 (300 mg/kg oral once a day), the “TGF-β1 expression inhibition rate (% CCl4 control group)” value was −17% and the “TGF-β1 expression (normalized by actin)” value is reported as 1.26 ± 0.13. Further, in the data set on TGF-β1, the “maximum decrement in TGF-β1 mRNA expression of the liver relative to the CCl4 control group” value was found to be 41% and the “expression of TGF-β1 mRNA of the liver, result in words” value is “decreased expression”.

Take `CC(C)(C)OC[C@@H]1C(=O)NCCN1C(=O)C[C@H](N)Cc1cc(F)c(F)cc1F` [tartrate of Compound 1, (R)-4-[(R)-3-amino-4-(2,4,5-trifluorophenyl)-butanoyl]-3-(t-butoxymethyl)piperazin-2-one]: in the data set with HepG2 cells, the “free fatty acid-induced fat accumulation in hepatocytes, result in words” value was “dose-dependent inhibition”. Besides, in the data set on HepG2 cells, the inhibition at 1 µM was found to be 28.7 ± 3.2%. Moreover, the “Hepatic TG” value was determined as 15.5 ± 2.0 mg/g wet liver in data set [1] (setting [5]); 7.4 ± 2.0 mg/g wet liver in data set [1] (setting [2]); 21.5 ± 0.7 mg/g wet liver in data set [1] (setting [6]); 15.8 ± 2.0 mg/g wet liver in data set [1] (setting [3]); 38.2 ± 5.8 mg/g wet liver in data set [1] (setting [7]); 15.1 ± 3.5 mg/g wet liver in data set [1] (setting [4]). The “Plasma ALT” value is 20.6 ± 0.9 U/L in data set [1] (setting [5]); 39.3 ± 3.6 U/L in data set [1] (setting [2]); 20.5 ± 1.2 U/L in data set [1] (setting [6]); 27.5 ± 1.5 U/L in data set [1] (setting [3]); 37.5 ± 4.2 U/L in data set [1] (setting [7]); 43.8 ± 4.3 U/L in data set [1] (setting [4]). The “serum alanine aminotransferase (ALT), result in words” value in data set [1] is “significant decreases”. Besides, in data set [1], the “hepatic triglyceride content, result in words” value is “significant decrease”. Moreover, the “TGF-β1 expression inhibition rate (% CCl4 control group)” value is 135% in the data set on TGF-β1 (30 mg/kg oral once a day), 128% in the data set on TGF-β1 (100 mg/kg oral once a day) and 100% in the data set with TGF-β1 (300 mg/kg oral once a day). In addition, the “TGF-β1 expression (normalized by actin)” value with TGF-β1 (30 mg/kg oral once a day) is on record as 0.92 ± 0.13; with TGF-β1 (100 mg/kg oral once a day), 0.93 ± 0.10; with TGF-β1 (300 mg/kg oral once a day) it was 1.00 ± 0.13. For the same compound, the “maximum decrement in TGF-β1 mRNA expression of the liver relative to the CCl4 control group” value in the data set on TGF-β1 is given as 135%. In addition, the “expression of TGF-β1 mRNA of the liver, result in words” value in the data set on TGF-β1 is listed as “normalization”.
